The subject of one assay is TNF-RE-tk-Luc. The assay is described as follows: Effect of antiestrogens on TNF-RE-tk-Luc (Example 2). It is filed as cell-based, human. Particulars: for effect on the repression induced by E2: TNF-RE-tk-Luc; for activation of TNF-RE-tk-Luc: antiestrogens, in contrast to E2. An excerpt: (§1) Plasmid Construction. A PstI to AhaII fragment from the human TNF-α gene, pLT, was cloned upstream of the luciferase cDNA. […] ERβ mutants were created with QuikChange site-directed mutagenesis kits (Stratagene), by using oligonucleotides containing the mutation. The mutants were sequenced with Sequenase kits (Amersham Pharmacia) to verify the presence of the mutation.
(§2) For experiments, cells were collected, transferred to a cuvette, and then electroporated with a Bio-Rad gene pulser as described previously using 3 μg of reporter plasmid and 1 μg of ERα or ERβ expression vectors. After electroporation, the cells were re-suspended in media and plated at 1 ml/dish in 12-well multiplates. […] The concentration of hormone required to produce a half-maximal induction (EC50) or inhibition (IC50) of luciferase activity was calculated with the Prism curve-fitting program (Graph Pad Software, version 2.0b). […] The cells were plated in duplicate at a density of 25,000 cells/35-mm plate in tissue culture medium containing 3% stripped fetal bovine serum. […] After 8 days the cells were counted with a Coulter counter.

Assay [1] has as its system estrogen receptor-positive breast cancer. Conditions: five years of therapy; cited from earlier work.
For assay [2], the system named is primary invasive breast cancer. Conditions: women at high risk for breast cancer; cited from earlier work.
For another assay, the system named is breast cancer. Particulars: among the 5129 women in the treatment group; median follow-up of 40 months; cited from earlier work.
In assay [3] the target is T1, ERβ (Homo sapiens, UniProt Q92731).
T1 construct: expressed in transfected cells
T1 sequence (Q92731 whole entry): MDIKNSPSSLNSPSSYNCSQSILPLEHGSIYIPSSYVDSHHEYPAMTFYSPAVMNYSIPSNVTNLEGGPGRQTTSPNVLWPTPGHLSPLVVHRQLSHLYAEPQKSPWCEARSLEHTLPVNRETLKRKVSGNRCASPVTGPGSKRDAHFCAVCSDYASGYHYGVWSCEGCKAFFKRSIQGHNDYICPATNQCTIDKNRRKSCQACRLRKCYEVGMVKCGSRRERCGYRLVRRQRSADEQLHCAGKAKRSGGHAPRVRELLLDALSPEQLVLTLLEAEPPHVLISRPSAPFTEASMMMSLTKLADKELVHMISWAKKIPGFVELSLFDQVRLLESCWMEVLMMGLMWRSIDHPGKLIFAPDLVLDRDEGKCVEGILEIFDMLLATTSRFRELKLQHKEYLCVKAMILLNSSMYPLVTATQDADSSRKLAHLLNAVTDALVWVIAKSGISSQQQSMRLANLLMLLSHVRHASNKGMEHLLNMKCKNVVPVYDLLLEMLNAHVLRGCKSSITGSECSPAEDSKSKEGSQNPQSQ
The assay is described as follows: Repression of TNF-α activation of TNF-RE-tk-Luc with ERβ (Example 2). The class given is cell-based. Particulars: in the presence of ERβ.
From the text: as §1, §2

The target of assay [4] is T1, ERβ. The assay is described as follows: Repression of TNF-α activation of TNF-RE-tk-Luc in U2OS cells with transfected ERβ. The class given is cell-based.
From the text: as §1, §2
The extracts (a and b) were than decanted and only the soluble material was used.

Consider `C[C@]12CC[C@@H]3c4ccc(O)cc4C[C@@H](CCCCCCCCC[S+]([O-])CCCC(F)(F)C(F)(F)F)[C@H]3[C@@H]1CC[C@@H]2O` (stereo partly drawn) [ICI 182,780], for which, in the assay on TNF-RE-tk-Luc, the “effect on the repression induced by E2” value is “abolished the repression induced by E2” and the “activation of TNF-RE-tk-Luc” value amounted to 2 fold.

Turning to `CC/C(=C(\c1ccccc1)c1ccc(OCCN(C)C)cc1)c1ccccc1` [tamoxifen], in assay [1], the “reduction of mortality from breast cancer” value is reported as 22% and the “reduction of the risk of recurrences” value was 42%. In the assay with TNF-RE-tk-Luc, the “effect on the repression induced by E2” value is reported as “abolished the repression induced by E2” and the “activation of TNF-RE-tk-Luc” value is reported as 2 fold. Further, the “reduction of the risk of primary invasive breast cancer” value in assay [2] is reported as 49%.

Turning to `O=C(c1ccc(OCCN2CCCCC2)cc1)c1c(-c2ccc(O)cc2)sc2cc(O)ccc12` [raloxifene], in the assay on TNF-RE-tk-Luc, the “effect on the repression induced by E2” value was “abolished the repression induced by E2” and the “activation of TNF-RE-tk-Luc” value amounted to 2 fold. Besides, the “cases of breast cancer” value in the assay with breast cancer was 13.

Take `C[C@]12CC[C@@H]3c4ccc(O)cc4CC[C@H]3[C@@H]1CC[C@@H]2O` [E2, estradiol]: the “repression of TNF-α activation of TNF-RE-tk-Luc” value at ERβ [3] is 60-80%. In addition, the “repression of TNF-α activation of TNF-RE” value on ERβ [4] stood at 100%.

The record behind these values is patent publication US20060134243A1, “Method of using extracts of epimedium species” (Bionovo, Inc., priority 2004, published 2006).
